Numbers after ± are expanded uncertainties.
What was measured:
[1] = 298.15 K; 101.33 kPa; Liquid; Pycnometric method
[2] = refractive index (Na D-line) (dimensionless); conditions: 298.15 K; 101.33 kPa; Liquid; Standard Abbe refractometry

mass density [1]: 679.53 ± 0.65 kg/m3
refractive index [2]: 1.3852 ± 0.0008
Structure (SMILES): CCCCCCC [heptane]

Reference: the NIST ThermoML archive (doi:10.1016/j.jct.2008.10.010)
